Data reported in patent US20030119022A1, “Recognition and cleavage at the DNA major groove” (priority 2001, published 2003).
One block for each molecule: values may come before it.

What was measured:
[1] = system: 5′-^32p end-labeled 514 bps restriction fragment from pBR322 DNA (Ecor I/ Rsa I); experiment: Reductive cleavage of 32P-end labeled DNA restriction fragment, PAGE autoradiogram; assay type: biochemical
[2] = NaBH4 reductive activation, hydrolytic cleavage
[3] = NaBH4 reductive activation, piperidine cleavage

Structure (SMILES): COS(=O)(=O)OC [DMS, reference compound]
Cleavage Pattern ([1]; Piperidine cleavage, no reductive activation (sequencing reference lane)): G & A

Structure (SMILES): CC(=O)OC1CCc2c1[nH]c1c2C(=O)C=C(N2CC2)C1=O (stereo not drawn) [reference compound]
Cleavage Pattern [1, 2]: No Significant Cleavage | Cleavage Pattern [1, 3]: G & T of 3′-GT- 5′

Structure (SMILES): CC(=O)OCc1[nH]c2c(c1C)C(=O)C(N1CC1)=CC2=O [reference compound]
Cleavage Pattern [1, 2]: Weak Cleavage | Cleavage Pattern [1, 3]: Some G & A

Structure (SMILES): COC1=CC(=O)c2[nH]c3c(c2C1=O)CCC3OC(C)=O (stereo not drawn) [Compound 2b, 3-Acetoxy-7-methoxy-1,2,3,4-tetrahydrocyclopent[b]indole-5,8-dione]
Cleavage Pattern [1, 2]: No Significant | Cleavage Pattern [1, 3]: G & T of 3′-GT- | melting point: 173 to 175 °C

Structure (SMILES): COC1=CC(=O)c2[nH]c(COC(C)=O)c(COC(C)=O)c2C1=O [Compound 1d, 2,3-Diacetoxymethyl-5-methoxyindol-4,7-dione]
Cleavage Pattern [1, 2]: recognition occurs only at 3′-GGA-5′ with phosphate alkylation and cleavage occurring largely at the center G base | Cleavage Pattern [1, 3]: GT (5′ | melting point: 179 to 181 °C

melting point: 194 to 196 °C
Structure (SMILES): CCOC(=O)c1[nH]c2c(c1COC(C)=O)C(=O)C(OC)=CC2=O
